Data reported in patent publication US7037717B1, “Cell line and screening method with the use of the same” (Chugai Seiyaku Kabushiki Kaisha, priority 1997, dated 2006).

Assays:
CL-1 cells [1] = assay: Stainability of CL-1 cells with Alcian blue (pH 1.0), cartilage-inducing ability; format: cell-based, mouse; conditions: for Alcian blue (pH 1.0)-positive nodules: morphologically, compared with the medium alone
Procedure: In order to examine whether or not CL-1 cells can be used as an in vitro screening system for cartilage-inducing materials, effects of hTGF-β, known to have cartilage-inducing ability (J. Biol. Chem. 261, 5693 (1986)) on the stainability of CL-1 cells with Alcian blue (pH 1.0) were examined. Namely, CL-1 cells were cultured on a 24-well plate (CORNING) at a cell density of 2500 cells/cm^2 to confluent, at which human transforming growth factor-β1 (hTGF-β1; AUSTRAL Biologicals) was added at a concentration of 0.1, 1.0 or 10 ng/ml, and cultivation took place for 3 weeks after the start of the addition with the medium being changed every 2 or 3 days. The addition of hTGF-β1 was performed for each medium change. After completion of cultivation, cells were fixed in 4% paraformaldehyde (Wako Pure Chemical Industries) and washed with water, then treated with 0.1 N hydrochloric acid (Wako Pure Chemical Industries) for 3 minutes, and then stained overnight with an Alcian blue (pH 1.0) solution (concentration: 1%). After completion of staining, samples were washed with distilled water three times and air-dried. The dried samples were immersed in 300 μl of a 6 M guanidine hydrochloride solution (Wako Pure Chemical Industries) for 3 hours and stirred, after which the absorbance of the guanidine hydrochloride solution at 620 nm was determined.

CL-1 cells [2] = assay: Differentiation of CL-1 cells into adipocytes, Oil red O-positive lipid droplets; format: cell-based, mouse
Procedure: Influences of 1,25-dihydroxyvitamin D3 known to inhibit conversion of a adipocyte precursor cell line 3T3-L1 into adipocytes (Comp. Biochem. Physiol. 96A, (1990)) on differentiation of CL-1 cells into adipocytes were examined. CL-1 cells were cultured on a 4-well chamber slide (Nunc) at a cell density of 2500 cells/cm^2 to confluent, after which 1,25-dihydroxyvitamin D3 was added at a final concentration of […] for each medium change.

CL-1 cells [3] = assay: Alizarin red S staining of CL-1 nodules; format: cell-based, mouse; conditions: 10 mM in medium, cultured one month
Procedure: CL-1 cells were similarly cultured in the medium supplemented with 10 mM β-glycerophosphate. Then, they were fixed in 4% paraformaldehyde (pH 7.4), washed with distilled water, then stained with a 1% Alizarin red S (Merck) solution for 5 minutes, washed with water and then observed with naked eyes and with an optical microscope.

ATDC-5 cells = assay: Stainability of ATDC-5 cells with Alcian blue (pH 1.0); format: cell-based; conditions: 10 μg/ml insulin and 0.1 to 10 ng/ml hTGF-β1, 7 days post confluent
Procedure: ATDC-5 cells known to differentiate into chondrocytes in the presence of insulin (Cell Diff. Dev. 30, 109 (1990); available from the Cell Bank of The Institute of Physical and Chemical Research) were also cultured by the same procedure in the presence of 10 μg/ml of insulin and 0.1 to 10 ng/ml of hTGF-β1 for 7 days post confluent to examine the stainability with Alcian blue (pH 1.0).

CL-1 cells [4] = assay: Uptake of 35S-labeled sulfuric acid into CL-1 cell layers; format: cell-based, mouse
Procedure: CL-1 cells were plated on a polystyrene 96-well plate (Wallac) at a cell density of 2000 cells/well, and incubated in (α-MEM (GIBCO) containing 10% inactivated serum (Intergen), 100 U/ml penicillin and 100 μg/ml streptomycin in an incubator at 37° C., 5% CO2, with the medium being changed with a fresh medium 3 times a week to reach confluency. After confluency was confirmed with a microscope, the medium was changed with a fresh medium containing human TGF-β1 (AUSTRAL BIOLOGICALS) at a concentration of 0.1, 1.0 or 10 ng/ml and incubation was continued. After 24 hours, ^35S-labeled sulfuric acid (Amersham) was added at 0.5 μCi/well and incubation was continued for further 24 hours. Then, the medium was changed with 200 μl of 0.1 M phosphate buffer (pH 7.4) containing 5% paraformaldehyde (Wako Pure Chemical Industries) and 0.4% cetylpyridinium chloride (Wako Pure Chemical Industries) for fixation at room temperature for 2 hours. After CL-1 cell layers were washed once with the same buffer, 100 μl of a liquid scintillator (Optiphase supermix, available from Wallac) was added to each well followed by stirring, so that the radioactivity of ^35S-labeled sulfuric acid incorporated into CL-1 cell layers was determined by a liquid scintillation counter (Microbeta 1450, available from Wallac).

CL-1 cells [5] = assay: Calcification of CL-1 cells, Ca deposition per dish (O-CPC method); format: cell-based, mouse; conditions: 10^−9, 10^−8 or 10^−7 M; vs solvent control, on and after 2 weeks post confluent
Procedure: CL-1 cells were cultured on a 60-mm dish (CORNING) at a cell density of 2000 cells/cm^2. When cells reached to confluent, 1,25-dihydroxyvitamin D3 was added at a final concentration of 10^−9, 10^−8 or 10^−7 M, then samples were weekly collected for 4 weeks post confluent to determine the Ca content with time. Namely, cell layers were washed with Ca-Mg-free PBS three times, then harvested in a crucible with a cell scraper (Nunc), then dried in an incubator at 60° C., then burned overnight in an oven at 800° C., and the remaining ash was dissolved in 500 μl of 6N hydrochloric acid (Wako Pure Chemical Industries). The Ca content in this solution was determined by the O-CPC method (Ca test Wako, available from Wako Pure Chemical Industries) to calculate the Ca deposition per dish.

CL-1 cells [6] = assay: Cartilage destruction: Alcian blue stainability of hTGF-β1-enhanced CL-1 cells; format: cell-based, mouse
Procedure: This example relates to an examination about whether or not cartilage-like nodules formed by culturing CL-1 cells in the presence of hTGF-β1 are destroyed by inflammatory cytokines IL-1 or TNF-α. CL-1 cells were cultured on a 24-well plate (CORNING) at a cell density of 2500 cells/cm^2 to confluent, after which hTGF-β1 was daily added to the medium for 5 days at a final concentration of 1.0 ng/ml. Then, mouse interleukin 1α (mIL-1α; R & D systems) and mouse tumor necrosis factor-a (mTNF-α; R & D systems) were daily added to the medium for 5 days at a final concentration of 0.1, 1.0 or 10 ng/ml, and the cells were cultured. Then, the stainability of CL-1 cells with Alcian blue (pH 1.0) was determined as described hereinbefore. As a result, the stainability with Alcian blue (pH 1.0) decreased in the presence of mIL-1α at 0.1 ng/ml or more (see FIG. 15) and mTNF-α at 1.0 ng/ml or more (see FIG. 16).

hIGF-I: human insulin-like growth factor-I (CHEMICON INTERNATIONAL)
stainability with Alcian blue (pH 1.0) (CL-1 cells [1]; 100 ng/ml, similar test, 3 weeks): increase | Alcian blue (pH 1.0)-positive nodules (CL-1 cells [1]; 3 weeks post confluent): clearly increased | accumulation of Oil red O-positive lipid droplets in CL-1 cells (CL-1 cells [2]; compared with the medium alone): promoted

O=P(O)(O)OC(CO)CO [β-glycerophosphate]
Alizarin red S staining of nodules (CL-1 cells [3]): turned positive

hTGF-β1: human transforming growth factor-β1 (AUSTRAL Biologicals), known to have cartilage-inducing ability
stainability with Alcian blue (pH 1.0) (CL-1 cells [1]; 0.1, 1.0 or 10 ng/ml added at each medium change, 3 weeks post confluent, absorbance at 620 nm): increased dose-dependently | Alcian blue (pH 1.0)-positive nodules (CL-1 cells [1]; 3 weeks post confluent): clearly increased | stainability of ATDC-5 cells with Alcian blue (pH 1.0) (ATDC-5 cells): dose-dependently decreased | increase of the uptake of 35S-labeled sulfuric acid (CL-1 cells [4]; 0.1, 1.0 or 10 ng/ml, FIG. 21): about double | concentration with statistically significant increase of the uptake of 35S-labeled sulfuric acid (CL-1 cells [4]; vs control containing the medium alone, 48 h after addition): ≥ 0.1 ng/mL

C=C1/C(=C\C=C2/CCC[C@]3(C)[C@@H]([C@H](C)CCCC(C)(C)O)CC[C@@H]23)C[C@@H](O)C[C@@H]1O [1,25-dihydroxyvitamin D3]
intracellular accumulation of Oil red O-positive lipid droplets (CL-1 cells [2]; 10^−3 M at each medium change, 3 weeks): remarkably inhibits | amount of Ca deposition (CL-1 cells [5]): significantly inhibited

B1: mIL-1α: mouse interleukin 1α (R & D systems), inflammatory cytokine (protein, UniProt P01582 115-270, looked up)
Interleukin-1 alpha: SAPYTYQSDLRYKLMKLVRQKFVMNDSLNQTIYQDVDKHYLSTTWLNDLQQEVKFDMYAYSSGGDDSKYPVTLKISDSQLFVSAQGEDQPVLLKELPETPKLITGSETDLIFFWKSINSKNYFTSAAYPELFIATKEQSRVHLARGLPSMTDFQIS
destruction of cartilage-like tissues formed by CL-1 cells in the presence of human TGF-β1 (CL-1 cells [6]): destroyed | concentration at which stainability with Alcian blue (pH 1.0) decreased (CL-1 cells [6]; daily added for 5 days after 5 days of hTGF-β1 1.0 ng/ml): ≥ 0.1 ng/ml
